The structures appear in SMILES notation. ≈ marks a conversion by molar mass, not a printed value.

These results are taken from DBAASP.

Some test systems named below: Klebsiella pneumoniae; Salmonella typhimurium; Bacillus cereus; Escherichia coli.
Holding throughout (test): ≥ marks a high value that may be exact or a test limit, other limits are often not marked, values filed in µg/mL are converted to µM
Assay [1] has as its system Escherichia coli ATCC 25922.
The subject of assay [2] is Salmonella enterica subsp. enterica serovar Typhimurium ATCC 14028.
Assay [3] deals with Acinetobacter baumannii ATCC 19606.
The test system of assay [4] is Bacillus subtilis ATCC 23857.
Assay [5] deals with Enterococcus faecalis ATCC 29212.
For assay [6], the system named is Klebsiella pneumoniae ATCC 700603.
In assay [7] the test system is Pseudomonas aeruginosa ATCC 27853.
Assay [8] concerns Staphylococcus aureus ATCC 25923.
Assay [9] has as its system Staphylococcus epidermidis ATCC 12228.
Assay [10] has as its system Pseudomonas aeruginosa ATCC 9027.

What is called MIC is the lowest concentration found to suppress growth. Low values mean inhibition by little substance, high ones a need for much substance. In the case of `CC[C@H](C)[C@H](NC(=O)[C@H](Cc1ccc(O)cc1)NC(=O)[C@@H](NC(=O)[C@H](CCCN=C(N)N)NC(=O)[C@H](CC(N)=O)NC(=O)[C@H](CC(N)=O)NC(=O)CN)C(C)C)C(=O)N1CCC[C@H]1C(=O)N[C@@H](CCC(N)=O)C(=O)N1CCC[C@H]1C(=O)N[C@@H](CCCN=C(N)N)C(=O)N1CCC[C@H]1C(=O)N[C@@H](Cc1cnc[nH]1)C(=O)N1CCC[C@H]1C(=O)N[C@@H](CCCN=C(N)N)C(=O)N[C@@H](CC(C)C)C(=O)O` [GNNRVYIPQPRPHPRL], the MIC (in assay [1]; with Klebsiella pneumoniae; in assay [2]) was over 128 µM each time.
Consider `CC[C@H](C)[C@H](NC(=O)[C@@H](NC(=O)[C@@H]1CCCN1C(=O)[C@@H](NC(=O)[C@@H]1CCCN1C(=O)[C@H](CCCCN)NC(=O)[C@H](CCCCN)NC(=O)[C@H](CO)NC(=O)CN)C(C)C)[C@@H](C)CC)C(=O)N[C@@H](Cc1ccc(O)cc1)C(=O)N[C@@H](C)C(=O)N[C@@H](CC(N)=O)C(=O)N[C@@H](CCCN=C(N)N)C(=O)N[C@@H](CCCN=C(N)N)C(=O)N[C@H](C(=O)NCC(=O)N[C@@H](CCCCN)C(=O)N[C@@H](C)C(=O)N[C@@H](CCC(N)=O)C(=O)N[C@@H](CCCN=C(N)N)C(=O)N[C@@H](CCSC)C(=O)O)[C@@H](C)O` [GSKKPVPIIYANRRTGKAQRM], for which, in the assay on Salmonella typhimurium, the minimum inhibitory concentration (MIC) worked out at 20.8 µM (≈ 49.3 µg/mL).
Take `CC[C@H](C)[C@H](NC(=O)[C@H](CO)NC(=O)[C@H](CS)NC(=O)[C@H](Cc1ccc(O)cc1)NC(=O)[C@@H](NC(=O)[C@H](C)NC(=O)[C@@H]1CCCN1C(=O)[C@H](Cc1ccccc1)NC(=O)[C@@H](NC(=O)[C@H](CCCCN)NC(=O)[C@H](CO)NC(=O)[C@H](C)NC(=O)[C@@H](NC(=O)[C@H](CCCN=C(N)N)NC(=O)CNC(=O)[C@H](CC(C)C)NC(=O)[C@H](C)NC(=O)[C@@H](N)CO)C(C)C)C(C)C)C(C)C)C(=O)N[C@H](C(=O)N[C@@H](CCCCN)C(=O)O)[C@@H](C)O` [SALGRVASKVFPAVYCSITK]: the MIC was at least 122 µM in the assay on Bacillus cereus and over 122 µM against Escherichia coli.
On to `CC[C@H](C)[C@H](NC(=O)[C@H](CC(C)C)NC(=O)[C@H](CO)NC(=O)[C@H](C)NC(=O)[C@@H](NC(=O)[C@H](C)NC(=O)CNC(=O)[C@H](CCCCN)NC(=O)[C@H](Cc1ccccc1)NC(=O)[C@H](CCCCN)NC(=O)[C@@H](NC(=O)[C@H](C)NC(=O)[C@@H](NC(=O)[C@@H](NC(=O)[C@@H]1CCCN1C(=O)[C@H](CO)NC(=O)[C@H](CO)NC(=O)[C@@H](NC(=O)CN)C(C)C)[C@@H](C)CC)C(C)C)C(C)C)C(C)C)C(=O)N[C@@H](CCCCN)C(=O)O` [GVSSPIVAVKFKGAVASLIK], for which the minimal inhibitory concentration (MIC) is at least 130 µM in the assay with Bacillus cereus and over 130 µM in the assay on Escherichia coli.
As to `CC[C@H](C)[C@H](NC(=O)CN)C(=O)N[C@@H](CCCN=C(N)N)C(=O)N[C@@H](Cc1c[nH]c2ccccc12)C(=O)N[C@@H](CCCCN)C(=O)N[C@@H](Cc1ccccc1)C(=O)N[C@@H](Cc1c[nH]c2ccccc12)C(=O)N[C@@H](CCCCN)C(=O)N[C@@H](Cc1ccccc1)C(=O)N[C@H](C(N)=O)[C@@H](C)O` [GIRWKFWKFT], the minimum inhibitory concentration (MIC) in assay [3] was 128 µM (≈ 175 µg/mL); in assay [4] it was at least 64 µM; in assay [5], 128 µM (≈ 175 µg/mL); in assay [1] it was 32 µM (≈ 43.8 µg/mL); in assay [6], 64 µM (≈ 87.5 µg/mL); in [7] it was 16 µM (≈ 21.9 µg/mL). The results for the minimum inhibitory concentration (MIC) in assay [8] and in assay [9] were 32 µM (≈ 43.8 µg/mL) and 128 µM (≈ 175 µg/mL), respectively.
On to `CC(C)C[C@H](NC(=O)CN)C(=O)N[C@@H](Cc1c[nH]c2ccccc12)C(=O)N[C@@H](CCCCN)C(=O)N[C@@H](CCCN=C(N)N)C(=O)N[C@@H](Cc1c[nH]c2ccccc12)C(=O)N[C@@H](CCCCN)C(=O)N[C@@H](CCCCN)C(=O)N[C@@H](Cc1ccccc1)C(=O)N[C@@H](Cc1c[nH]c2ccccc12)C(N)=O` [GLWKRWKKFW], for which the minimum inhibitory concentration (MIC) is 16 µM (≈ 22.9 µg/mL) in assay [3]; 8 µM (≈ 11.5 µg/mL) in [4]; 32 µM (≈ 45.9 µg/mL) in assay [5]; 8 µM (≈ 11.5 µg/mL) in [1]; 8 µM (≈ 11.5 µg/mL) in assay [6]; 4 µM (≈ 5.74 µg/mL) in assay [7]. Also, the MIC in [8] stood at 8 µM (≈ 11.5 µg/mL); in [9] it was 16 µM (≈ 22.9 µg/mL).
Consider `CC[C@H](C)[C@H](NC(=O)[C@H](CCCN=C(N)N)NC(=O)[C@H](CCCN=C(N)N)NC(=O)[C@H](Cc1ccccc1)NC(=O)[C@H](Cc1ccccc1)NC(=O)CN)C(=O)N[C@@H](CCCCN)C(=O)N[C@H](C(=O)N[C@@H](Cc1ccccc1)C(=O)N[C@@H](Cc1ccccc1)C(N)=O)[C@@H](C)O` [GFFRRIKTFF], for which the minimum inhibitory concentration (MIC) turned out to be 64 µM (≈ 84.3 µg/mL) in assay [3]; 16 µM (≈ 21.1 µg/mL) in assay [4]; 64 µM (≈ 84.3 µg/mL) in assay [5]; 32 µM (≈ 42.2 µg/mL) in [1]; 32 µM (≈ 42.2 µg/mL) in assay [6]; 8 µM (≈ 10.5 µg/mL) in [7]. Moreover, the results for the MIC in assay [8] and in assay [9] were 16 µM (≈ 21.1 µg/mL) and 64 µM (≈ 84.3 µg/mL), respectively.
`CC[C@H](C)[C@H](NC(=O)[C@H](CCCCN)NC(=O)[C@H](CCCCN)NC(=O)[C@H](C)NC(=O)[C@@H](NC(=O)[C@H](C)NC(=O)[C@H](C)NC(=O)[C@H](CC(C)C)NC(=O)[C@H](CCCCN)NC(=O)[C@H](CCCCN)NC(=O)[C@H](CC(C)C)NC(=O)[C@H](CC(N)=O)NC(=O)[C@@H](N)CC(C)C)C(C)C)C(=O)N[C@@H](CC(C)C)C(N)=O` [LNLKKLAAVAKKIL]: the MIC in assay [4] turned out to be 4 µM (≈ 6.09 µg/mL); in assay [1], 8 µM (≈ 12.2 µg/mL); in assay [6], 32 µM (≈ 48.7 µg/mL); in [10], 4 µM (≈ 6.09 µg/mL); in [8] it was 32 µM (≈ 48.7 µg/mL).
Regarding `CC[C@H](C)[C@H](NC(=O)[C@H](CCCCN)NC(=O)[C@H](CCCCN)NC(=O)[C@H](C)NC(=O)[C@@H](NC(=O)[C@H](C)NC(=O)[C@H](CC(C)C)NC(=O)[C@H](CC(C)C)NC(=O)[C@H](C)NC(=O)[C@H](CCCCN)NC(=O)[C@H](CC(C)C)NC(=O)[C@H](CC(N)=O)NC(=O)[C@H](C)N)C(C)C)C(=O)N[C@@H](CC(C)C)C(N)=O` [ANLKALLAVAKKIL], the minimum inhibitory concentration (MIC) in assay [4] worked out at 4 µM (≈ 5.86 µg/mL); in [1], 4 µM (≈ 5.86 µg/mL); in assay [6], 16 µM (≈ 23.4 µg/mL); in assay [10], 16 µM (≈ 23.4 µg/mL); in assay [8] it was 32 µM (≈ 46.9 µg/mL).
`CC[C@H](C)[C@H](NC(=O)CN)C(=O)N[C@H](C(=O)N[C@@H](CCCCN)C(=O)NCC(=O)N[C@H](C(=O)N[C@H](C(=O)N[C@@H](CCCCN)C(=O)N[C@H](C(=O)N[C@H](C(=O)N[C@@H](CCCCN)C(=O)N[C@@H](C)C(N)=O)[C@@H](C)CC)[C@@H](C)CC)[C@@H](C)CC)[C@@H](C)CC)[C@@H](C)CC` [GIIKGIIKIIKA]: the MIC was 4 µM (≈ 5.06 µg/mL) in [4] and 128 µM (≈ 162 µg/mL) in [1].
The corresponding values for `CC[C@H](C)[C@H](NC(=O)CNC(=O)[C@@H](N)CS)C(=O)N[C@H](C(=O)N[C@@H](C)C(=O)NCC(=O)N[C@H](C(=O)N[C@H](C(=O)N[C@H](C(=O)N[C@@H](CCCCN)C(=O)N[C@H](C(=O)N[C@@H](CCCCN)C(=O)N[C@@H](CCCCN)C(=O)N[C@@H](CS)C(N)=O)[C@@H](C)CC)[C@@H](C)CC)[C@@H](C)CC)[C@@H](C)CC)[C@@H](C)CC` [CGIIAGIIIKIKKC] are at least 32 µM and over 128 µM.
As to `CC[C@H](C)[C@H](NC(=O)[C@H](CCCN=C(N)N)NC(=O)[C@H](CCCCN)NC(=O)[C@H](Cc1c[nH]c2ccccc12)NC(=O)[C@H](Cc1c[nH]c2ccccc12)NC(=O)CN)C(=O)N[C@@H](CCCCN)C(=O)N[C@H](C(=O)N[C@@H](Cc1c[nH]c2ccccc12)C(=O)N[C@@H](Cc1c[nH]c2ccccc12)C(N)=O)[C@@H](C)O` [GWWKRIKTWW], the MIC in assay [3] amounted to 8 µM (≈ 11.6 µg/mL); in assay [4], 8 µM (≈ 11.6 µg/mL); in assay [5] it was 16 µM (≈ 23.1 µg/mL); in assay [1], 8 µM (≈ 11.6 µg/mL); in assay [6], 8 µM (≈ 11.6 µg/mL); in assay [7] it was 4 µM (≈ 5.78 µg/mL). The minimal inhibitory concentration (MIC) amounted to 4 µM (≈ 5.78 µg/mL) in [8] and 8 µM (≈ 11.6 µg/mL) in assay [9].
